Reference: patent publication US20060257535A1, “Milk mineral compositions for use with raw meat products” (Glanbia Nutritionals (Ireland) Limited, priority 2005, published 2006)

Key:
[1] = Hunter color redness (a*) measurement
Excerpt: (§1) Thiobarbituric acid assay (TBA) values and color of ground beef in 80% oxygen modified atmosphere packaging were examined. The additive compositions used for each treatment are identified in Table 3.
(§2) Co., of Troy Ohio) with a 0.60 cm plate and finely ground using a 0.32 cm plate. The MM, vitamin E and STP were manually mixed with the meat. Meat portions of about 130 grams each were placed in vacuum pouches. […] The meat samples were packaged in PVC-wrapped containers in 80% oxygen MAP (gas cylinder containing 80% oxygen and 20% carbon dioxide available from Praxair Distribution of Salt Lake City, Utah) to simulate retail packaging conditions and held for 14 days at 2° C., which is essentially the same as conventional retail packaging for ground beef. Thiobarbituric acid assay (TBA) and color readings were taken after 1, 4, 7 and 14 days.
The Hunter measurement standard uses the following scales: L=lightness, a=green and red and b=blue and yellow. The L*, a* and b* values were measured using a Hunter Lab Miniscan portable colorimeter (Reston, Va.), standardized using a white and black standard tile. The hue angle was calculated using the formula: hue angle=tan^−1(b*/a*).
Larger hue angles are associated with less red color, where hue angle=0 is red and hue angle=90 is yellow. The raw samples were scored for color, where 1=purple, 2=reddish purple, 3=bright red, 4=tan and 5=brown.

[2] = Thiobarbituric acid reactive substances (TBARS/TBA) assay of oxidative rancidity; conditions: for TBA value: mean for entire 14 day study period, 80% oxygen MAP, 2° C
Excerpt: as §1, §2
[…]. Oxidation of fat-containing foods leads to the formation of malondialdehyde or derivates of this compound. […]. Duplicate samples (0.5 g) were mixed with 2.5 ml of solution containing 0.375% TBA (Sigma Chem. Co. of St. Louis, Mo.), 15% trichloroacetic acid (TCA) (Mallinckrodt Baker, Inc. of Paris, Ky.) and 0.25 N hydrochloric acid (HCl). The samples were heated for 10 minutes in a boiling water bath (100° C.) to develop a pink color, cooled in tap water and centrifuged (Sorvall Instruments, Model RC 5C, DuPont, Wilmington, Del.) at 6000 rpm for 10 minutes. The absorbance of the supernatant was measured spectrophotometrically (Spectronic 21D, Milton Roy, Rochester, N.Y.) at 532 nm against a blank that contained all of the reagents minus the meat. The malonaldehyde (MDA) concentration was calculated using an extinction coefficient of 1.56×10^5 M-cm^−1. The MDA concentration was converted to TBA number (mg MDA/kg sample) according to Equation (I): [formula] or to TBA number (parts per million) according to Equation (II): TBA number (ppm)=Sample A532×2.77 (II)
Samples were taken from the exterior surface and the interior portions of the meat and analyzed for rancidity using TBA analysis.

| Compound | red color compared with 0.25% STP and controls ([1]; 0.5% STP, after 14 days, FIG. 2b) | color stability of raw ground beef ([1]; MM more than STP) | TBA values ([2]; 0.25% STP and 0.5% STP, 7 and 14 days following packaging, FIG. 1b) | TBA values compared with control ([2]; 0.25% and 0.5% STP, 14 days following packaging) | TBA values compared with 0.25% STP treatment group ([2]; 0.5% STP, 14 days) | TBA value ([2]; STP 0.25% by weight of meat) | TBA value ([2]; STP 0.5% by weight of meat) | TBA values ([2]; higher level of STP (0.5%), after 14 days of storage) | TBA values (effectiveness compared with 0.5% STP) ([2]; lower level of STP (0.25%), after 14 days of storage) | TBA values compared with treatments with vitamin E ([2]; p<0.05) | a* values ([1]; highest level of vitamin E in ethanol, by 14 days) | red color compared with controls ([1]; vitamin E in mineral oil, after 7 days) | red color compared with control ([1]; vitamin E in oil or in ethanol, FIG. 2c, 2d) | TBA value ([2]; Vit E 50 ppm in ethanol) | TBA value ([2]; Vit E 50 ppm in mineral oil) | TBA value ([2]; Vit E 100 ppm in ethanol) | TBA value ([2]; Vit E 100 ppm in mineral oil) | TBA values compared with control ([2]; both vitamin E preparations (mineral oil, ethanol)) | antioxidant effects (TBA values) ([2]; vitamin E in mineral oil or in ethanol, FIG. 1c, 1d) |
| --- | --- | --- | --- | --- | --- | --- | --- | --- | --- | --- | --- | --- | --- | --- | --- | --- | --- | --- | --- |
| O=P(O)(O)OP(=O)(O)OP(=O)(O)O [STP, sodium tripolyphosphate] | significantly more red color | dramatically increased | low TBA values | significantly lower | significantly lower | 0.65 b | 0.33 c | less than 1 | not as effective | lower | – | – | – | – | – | – | – | – | – |
| vitamin E [Vit E] | – | – | – | – | – | – | – | – | – | – | lowest a* values | significantly less red in color than the controls | did not exhibit any more red color than control samples | 1.67 a | 1.71 a | 1.61 a | 1.74 a | not significantly different from the control | no antioxidant effects |
